The values that follow come from ChEMBL document CHEMBL2046303, “Discovery and Development of Potent LFA-1/ICAM-1 Antagonist SAR 1118 as an Ophthalmic Solution for Treating Dry Eye” (ACS Med Chem Lett, 2012).

Series [1] deals with T1, Intercellular adhesion molecule (ICAM-1), Integrin alpha-L/beta-2 (Homo sapiens, UniProt P05107+P05362+P20701). Kind of series: Antagonist activity at LFA-1/ICAM-1 in human HuT-78 T-cells assessed as inhibition of cell adhesion after 1 hr by p-nitrophenyl n-acetyl-beta-D-glucosaminide method. The format is functional, cell-based, HuT78.
The target of series [2] is T1, Intercellular adhesion molecule (ICAM-1), Integrin alpha-L/beta-2. In words: Antagonist activity at LFA-1/ICAM-1 in human HuT-78 T-cells assessed as inhibition of cell adhesion after 1 hr by p-nitrophenyl n-acetyl-beta-D-glucosaminide method in presence of 10% human serum. The format is functional, cell-based, HuT78.
Series [3] can be described thus: Solubility of the compound in phosphate-buffered saline. The format is physicochemical.
The nature of series [4]: Metabolic stability in human liver microsomes assessed as compound remaining after 30 mins. The format is ADME, Microsome. Conditions: read-out: Stability. In general terms: Liver microsomes are a subcellular fraction often used to study metabolism.
Series [5] in a line: Metabolic stability in rat liver microsomes assessed as compound remaining after 30 mins. The format is ADME, Microsome. The conditions noted are these: read-out: Stability.
Series [6] can be described thus: Half life in Sprague-Dawley rat at 5 mg/kg, iv. The format is ADME, organism-based. Also noted: dose 5 mg/kg, route intravenous. Conditions: in vivo.
Series [7] can be described thus: Clearance in Sprague-Dawley rat at 5 mg/kg, iv. Also noted: dose 5 mg/kg, route intravenous. Conditions: in vivo. The format is ADME, organism-based.
For the next series, the system named is Rattus norvegicus. Kind of series: AUC in Sprague-Dawley rat at 5 mg/kg, iv. The format is ADME, organism-based, Plasma. Also on record: dose 5 mg/kg, route intravenous. Conditions: in vivo.
Series [8] concerns the target Intercellular adhesion molecule 1 (Homo sapiens) (UniProt P05362). Kind of series: Inhibition of ICAM-1-mediated IFNgamma release.
Series [9] has the same target. In words: Inhibition of ICAM-1-mediated MIP-1alpha release.
Series [10] shares this target. Kind of series: Inhibition of ICAM-1-mediated IL-1alpha release.
Series [11] shares this target. Kind of series: Inhibition of ICAM-1-mediated IL-1beta release.
Series [12] has the same target. In words: Inhibition of ICAM-1-mediated IL-6 release.
Series [13] has the same target. Kind of series: Inhibition of ICAM-1-mediated IL-10 release.
The nature of series [14]: Drug uptake in rat bulbar conjunctiva administered topically as ophthalmic solution after 30 mins. The format is ADME. Conditions: in vivo, topical_or_ocular, 0.5 h.
A short description of series [15]: Drug uptake in rat palpebral conjunctiva administered topically as ophthalmic solution after 30 mins. The format is ADME, tissue-based. The conditions noted are these: in vivo, topical_or_ocular, 0.5 h.
Series [16] in a line: Drug uptake in rat cornea administered topically as ophthalmic solution after 30 mins. The format is ADME, tissue-based. Conditions: in vivo, topical_or_ocular, 0.5 h.
Series [17] in a line: Drug uptake in dog bulbar conjunctiva administered topically as ophthalmic solution after 30 mins. The format is ADME, tissue-based, Canis lupus familiaris. Conditions: in vivo, topical_or_ocular, 0.5 h.
Series [18] can be described thus: Drug uptake in dog palpebral conjunctiva administered topically as ophthalmic solution after 30 mins. The format is ADME, tissue-based, Canis lupus familiaris. Conditions: in vivo, topical_or_ocular, 0.5 h.
A short description of series [19]: Drug uptake in dog cornea administered topically as ophthalmic solution after 30 mins. The format is ADME, tissue-based, Canis lupus familiaris. The conditions noted are these: in vivo, topical_or_ocular, 0.5 h.
A further series relates to Salmonella typhimurium. In words: Genotoxicity in Salmonella typhimurium by Ames test. The format is toxicity, organism-based. The conditions noted are these: salmonella enterica subsp. enterica serovar typhimurium. A general note: The Ames test detects mutagens through reverse mutation in bacteria.
The target in another series is Cytochrome P450 3A4 (Homo sapiens, UniProt P08684). Kind of series: Inhibition of CYP3A4. The format is ADME.
The next series has as its target Cytochrome P450 2C9 (Homo sapiens, UniProt P11712). In words: Inhibition of CYP2C9. The format is ADME.
Another series deals with Canis familiaris. In words: Increase of mean schirmer's tear test in dog administered topically with 1% PBS solution tid for 12 weeks measured after 1 to 12 weeks. The format is functional, Canis lupus familiaris.

Activity calls are given as the source filed them.

A word on the IC50: it is the concentration needed to halve the response being measured. The solubility is how much of the substance goes into solution per volume. A higher solubility goes with much dissolved substance. Broadly, the half-life is the time needed for the level to fall by half in the phase considered. Low values mean fast loss, high ones slow loss. The clearance is the volume of plasma or blood freed of the substance per unit of time. By AUC is commonly meant concentration integrated over time. Read a high AUC as more exposure.

Intercellular adhesion molecule 1 (Homo sapiens), sequence (P05362 whole entry): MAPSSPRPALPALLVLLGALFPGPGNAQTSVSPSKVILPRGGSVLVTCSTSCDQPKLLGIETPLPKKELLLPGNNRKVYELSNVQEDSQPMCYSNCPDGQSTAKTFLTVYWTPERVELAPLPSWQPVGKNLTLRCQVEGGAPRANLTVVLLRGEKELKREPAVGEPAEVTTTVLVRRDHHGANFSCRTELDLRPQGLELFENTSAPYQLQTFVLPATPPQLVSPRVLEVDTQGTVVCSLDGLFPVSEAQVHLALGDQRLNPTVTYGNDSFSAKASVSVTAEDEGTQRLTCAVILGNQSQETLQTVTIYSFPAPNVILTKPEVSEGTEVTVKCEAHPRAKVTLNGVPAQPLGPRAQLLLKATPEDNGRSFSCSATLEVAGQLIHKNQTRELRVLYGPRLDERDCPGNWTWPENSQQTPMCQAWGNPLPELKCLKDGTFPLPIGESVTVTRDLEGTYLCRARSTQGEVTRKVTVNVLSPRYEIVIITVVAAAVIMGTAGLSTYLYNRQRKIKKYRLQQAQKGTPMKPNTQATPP
T1 sequence (P20701 whole entry): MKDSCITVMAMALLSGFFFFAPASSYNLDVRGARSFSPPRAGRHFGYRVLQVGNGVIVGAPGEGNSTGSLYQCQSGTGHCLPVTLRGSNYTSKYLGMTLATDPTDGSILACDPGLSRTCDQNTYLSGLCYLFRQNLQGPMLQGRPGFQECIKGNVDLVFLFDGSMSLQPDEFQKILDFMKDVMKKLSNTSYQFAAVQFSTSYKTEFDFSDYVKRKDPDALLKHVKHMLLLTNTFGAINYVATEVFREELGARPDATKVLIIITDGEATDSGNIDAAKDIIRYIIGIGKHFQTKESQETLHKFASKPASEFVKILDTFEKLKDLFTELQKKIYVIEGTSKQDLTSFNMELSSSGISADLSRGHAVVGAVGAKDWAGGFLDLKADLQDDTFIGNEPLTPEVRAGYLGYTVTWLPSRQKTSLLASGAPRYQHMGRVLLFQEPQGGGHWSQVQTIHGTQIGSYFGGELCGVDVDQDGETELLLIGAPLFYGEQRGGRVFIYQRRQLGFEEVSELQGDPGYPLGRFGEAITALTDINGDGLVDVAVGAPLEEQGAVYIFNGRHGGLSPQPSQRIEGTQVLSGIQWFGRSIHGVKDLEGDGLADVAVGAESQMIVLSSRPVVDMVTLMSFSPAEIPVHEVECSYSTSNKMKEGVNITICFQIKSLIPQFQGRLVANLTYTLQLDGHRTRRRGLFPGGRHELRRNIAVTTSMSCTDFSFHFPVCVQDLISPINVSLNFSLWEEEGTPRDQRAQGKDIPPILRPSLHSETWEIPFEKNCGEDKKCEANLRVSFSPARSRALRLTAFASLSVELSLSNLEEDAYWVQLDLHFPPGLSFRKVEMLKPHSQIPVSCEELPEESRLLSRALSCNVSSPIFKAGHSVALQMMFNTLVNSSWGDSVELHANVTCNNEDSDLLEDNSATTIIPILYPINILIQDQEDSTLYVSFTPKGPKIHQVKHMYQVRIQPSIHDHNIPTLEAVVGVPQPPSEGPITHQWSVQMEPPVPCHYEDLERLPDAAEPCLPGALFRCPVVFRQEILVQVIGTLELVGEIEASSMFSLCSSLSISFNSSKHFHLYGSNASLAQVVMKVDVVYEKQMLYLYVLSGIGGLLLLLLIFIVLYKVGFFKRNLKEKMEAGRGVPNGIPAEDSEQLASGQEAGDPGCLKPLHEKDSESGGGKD
T1 sequence (P05362 whole entry): as the sequence (P05362 whole entry) above
T1 sequence (P05107 whole entry): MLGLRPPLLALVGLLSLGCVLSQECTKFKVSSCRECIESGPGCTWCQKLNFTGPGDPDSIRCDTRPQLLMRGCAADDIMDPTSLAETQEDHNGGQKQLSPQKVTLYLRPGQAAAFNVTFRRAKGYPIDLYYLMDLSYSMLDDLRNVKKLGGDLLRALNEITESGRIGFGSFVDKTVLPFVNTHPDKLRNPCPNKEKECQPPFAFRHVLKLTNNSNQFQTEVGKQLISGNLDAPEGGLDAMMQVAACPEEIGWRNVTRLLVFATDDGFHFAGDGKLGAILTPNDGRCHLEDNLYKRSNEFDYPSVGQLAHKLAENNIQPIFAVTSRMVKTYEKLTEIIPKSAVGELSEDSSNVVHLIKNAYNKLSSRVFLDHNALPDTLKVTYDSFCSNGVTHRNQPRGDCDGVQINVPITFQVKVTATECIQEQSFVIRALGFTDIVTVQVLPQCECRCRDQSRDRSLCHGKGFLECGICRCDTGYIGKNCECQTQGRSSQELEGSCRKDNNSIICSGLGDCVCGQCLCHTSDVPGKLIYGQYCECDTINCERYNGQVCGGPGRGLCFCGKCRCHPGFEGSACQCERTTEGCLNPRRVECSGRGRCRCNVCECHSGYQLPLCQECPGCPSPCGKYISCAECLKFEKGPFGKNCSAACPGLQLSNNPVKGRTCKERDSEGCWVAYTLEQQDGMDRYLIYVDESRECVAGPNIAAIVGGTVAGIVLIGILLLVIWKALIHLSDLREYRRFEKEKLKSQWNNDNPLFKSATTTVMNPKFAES
Cytochrome P450 3A4, sequence (P08684 whole entry): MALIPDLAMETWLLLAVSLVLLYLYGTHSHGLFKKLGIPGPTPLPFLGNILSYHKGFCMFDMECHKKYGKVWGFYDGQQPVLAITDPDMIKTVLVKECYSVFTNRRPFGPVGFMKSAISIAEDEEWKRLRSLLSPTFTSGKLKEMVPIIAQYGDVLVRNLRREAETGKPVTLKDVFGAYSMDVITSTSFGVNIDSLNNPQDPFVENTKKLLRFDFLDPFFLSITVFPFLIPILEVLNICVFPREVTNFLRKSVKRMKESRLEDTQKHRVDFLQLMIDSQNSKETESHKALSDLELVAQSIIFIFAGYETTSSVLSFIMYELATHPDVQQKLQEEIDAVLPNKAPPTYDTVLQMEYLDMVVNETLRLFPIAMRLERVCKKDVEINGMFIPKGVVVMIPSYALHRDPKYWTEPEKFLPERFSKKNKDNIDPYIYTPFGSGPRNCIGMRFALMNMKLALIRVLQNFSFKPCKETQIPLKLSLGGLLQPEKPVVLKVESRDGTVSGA
Cytochrome P450 2C9, sequence (P11712 whole entry): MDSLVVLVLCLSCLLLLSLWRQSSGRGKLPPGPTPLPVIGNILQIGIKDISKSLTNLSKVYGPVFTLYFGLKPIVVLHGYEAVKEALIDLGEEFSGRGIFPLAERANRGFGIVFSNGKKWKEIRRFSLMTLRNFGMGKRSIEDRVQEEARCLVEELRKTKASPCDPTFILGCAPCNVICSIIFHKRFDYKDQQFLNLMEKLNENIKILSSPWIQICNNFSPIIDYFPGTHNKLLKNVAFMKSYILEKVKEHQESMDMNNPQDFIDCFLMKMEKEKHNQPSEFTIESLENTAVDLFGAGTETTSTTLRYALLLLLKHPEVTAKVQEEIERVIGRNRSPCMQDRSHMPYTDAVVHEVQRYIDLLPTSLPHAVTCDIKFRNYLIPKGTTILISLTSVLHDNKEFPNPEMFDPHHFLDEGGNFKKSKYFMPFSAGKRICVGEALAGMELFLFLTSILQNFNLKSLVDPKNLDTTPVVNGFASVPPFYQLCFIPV

Regarding `CC(=O)c1cccc(C[C@H](NC(=O)c2c(Cl)cc3c(c2Cl)CCN(C(=O)c2ccc4ccoc4c2)C3)C(=O)O)c1`, the figures for the half-inhibitory concentration (IC50) in series [1] and in [2] were 0.012 µM and 5.6 µM, respectively.
Take `CN(C)S(=O)(=O)c1cccc(C[C@H](NC(=O)c2c(Cl)cc3c(c2Cl)CCN(C(=O)c2ccc4ccoc4c2)C3)C(=O)O)c1`: the IC50 is 0.01 µM in series [1] and over 10 µM in [2].
For `CS(=O)(=O)c1cc(Cl)cc(C[C@H](NC(=O)c2c(Cl)cc3c(c2Cl)CCN(C(=O)c2ccc4ccoc4c2)C3)C(=O)O)c1`, in that order: 0.01 µM and 0.2 µM.
On to `CS(=O)(=O)c1cccc(C[C@H](NC(=O)c2c(Cl)cc3c(c2Cl)CCN(C(=O)c2ccc4ccoc4c2)C3)C(=O)[O-])c1.[Na+]` [LIFITEGRAST SODIUM], for which the solubility in series [3] is at least 200 mg/mL.
As to `C[S+]([O-])c1cncc(CC(NC(=O)c2c(Cl)cc3c(c2Cl)CCN(C(=O)c2ccc4ccoc4c2)C3)C(=O)O)c1` (racemic), the IC50 is 0.057 µM in series [1] and 0.05 µM in series [2]. Also, the remaining at 0.5 h in series [4] and in series [5] was over 95% throughout. Moreover, in series [6], the half-life is 16.2 min. The molecule also gave a clearance in series [7] of 7.27 L/h/kg. Moreover, the AUC with Rattus norvegicus stood at 0.753 µg·h/mL.
Turning to `CNS(=O)(=O)c1cccc(C[C@H](NC(=O)c2c(Cl)cc3c(c2Cl)CCN(C(=O)c2ccc4ccoc4c2)C3)C(=O)O)c1`, the values for the concentration for half-maximal inhibition (IC50) in series [1] and in series [2] were 0.013 µM and 0.64 µM, respectively.
As for `CS(=O)(=O)c1cncc(C[C@H](NC(=O)c2c(Cl)cc3c(c2Cl)CCN(C(=O)c2ccc4ccoc4c2)C3)C(=O)O)c1`, the IC50 in series [1] was found to be 0.039 µM; in series [2] it was 0.032 µM. The remaining at 0.5 h in [4] and in series [5] was over 95% in each case. Besides, the half-life in series [6] is 37.2 min. For the same molecule, the clearance in [7] came to 4.41 L/h/kg. The molecule further registered an AUC with Rattus norvegicus of 1.28 µg·h/mL.
In the case of `CS(=O)(=O)c1ccc(C[C@H](NC(=O)c2c(Cl)cc3c(c2Cl)CCN(C(=O)c2ccc4ccoc4c2)C3)C(=O)O)o1`, the remaining at 0.5 h is 65% in series [4] and over 95% in [5]. Further, the half-life in series [6] was 25.8 min. For the same molecule, the clearance in [7] was 3.6 L/h/kg. The same molecule showed an area under the curve (AUC) with Rattus norvegicus of 1.51 µg·h/mL.
For `C[C@H](O)c1cccc(C[C@H](NC(=O)c2c(Cl)cc3c(c2Cl)CCN(C(=O)c2ccc4ccoc4c2)C3)C(=O)O)c1`, the results for the half-maximal inhibitory concentration (IC50) in series [1] and in series [2] were 0.014 µM and 0.94 µM, respectively.
In the case of `CS(=O)(=O)c1ccccc1C[C@H](NC(=O)c1c(Cl)cc2c(c1Cl)CCN(C(=O)c1ccc(Cl)cc1)C2)C(=O)O`, in [1], the concentration for half-maximal inhibition (IC50) is over 1 µM.
In the case of `CS(=O)(=O)c1cccc(C[C@H](NC(=O)c2c(Cl)cc3c(c2Cl)CCN(C(=O)c2ccc4ccoc4c2)C3)C(=O)O)c1` [listing 1 of 2 here], the inhibition result in [8], in series [9], in series [10], in series [11], in series [12] and in [13] was “Active” throughout.
As to `CS(=O)(=O)c1cccc(C[C@H](NC(=O)c2c(Cl)cc3c(c2Cl)CCN(C(=O)c2ccc(Cl)cc2)C3)C(=O)O)c1`, the IC50 in series [1] was 0.003 µM; in series [2], 0.2 µM.
With `CC(C)c1cccc(C[C@H](NC(=O)c2c(Cl)cc3c(c2Cl)CCN(C(=O)c2ccc(Cl)cc2)C3)C(=O)O)c1`, the IC50 in [1] was 0.01 µM; in series [2] it was over 10 µM.
In the same order, the values of `CCS(=O)(=O)c1cccc(C[C@H](NC(=O)c2c(Cl)cc3c(c2Cl)CCN(C(=O)c2ccc4ccoc4c2)C3)C(=O)O)c1` are 0.002 µM and 0.18 µM.
Consider `CS(=O)(=O)c1cccc(C[C@H](N[14C](=O)c2c(Cl)cc3c(c2Cl)CCN(C(=O)c2ccc4ccoc4c2)C3)C(=O)O)c1`, for which the Drug uptake entry in series [14], in series [15], in series [16], in [17], in series [18] and in series [19] was “Active” each time.
For the molecule `CC(C)S(=O)(=O)c1cccc(C[C@H](NC(=O)c2c(Cl)cc3c(c2Cl)CCN(C(=O)c2ccc4ccoc4c2)C3)C(=O)O)c1`, the IC50 in series [1] is 0.2 µM; in series [2], over 10 µM.
As to `CS(=O)(=O)c1cccc(C[C@H](NC(=O)c2c(Cl)cc3c(c2Cl)CCN(C(=O)c2ccc4ccoc4c2)C3)C(=O)O)c1Cl`, the 50% inhibitory concentration (IC50) in series [1] was found to be 0.8 µM.
Regarding `NS(=O)(=O)c1cccc(C[C@H](NC(=O)c2c(Cl)cc3c(c2Cl)CCN(C(=O)c2ccc4ccoc4c2)C3)C(=O)O)c1`, the 50% inhibitory concentration (IC50) worked out at 0.004 µM in [1] and 0.2 µM in [2]. Besides, the remaining at 0.5 h in series [4] is 71%; in series [5], over 95%. Moreover, the half-life in [6] is 61.8 min. In [7], this molecule yielded a clearance of 2.06 L/h/kg. In the series with Rattus norvegicus, this molecule returned an exposure (AUC) of 2.43 µg·h/mL.
As to `CS(=O)(=O)c1ccc(Cl)c(C[C@H](NC(=O)c2c(Cl)cc3c(c2Cl)CCN(C(=O)c2ccc4ccoc4c2)C3)C(=O)O)c1`, the IC50 in [1] stood at 0.12 µM.
As to `CS(=O)(=O)c1ccc(C[C@H](NC(=O)c2c(Cl)cc3c(c2Cl)CCN(C(=O)c2ccc(Cl)cc2)C3)C(=O)O)o1`, the half-maximal inhibitory concentration (IC50) in [1] came to 0.006 µM; in series [2] it was 0.24 µM. Also, the remaining at 0.5 h in series [4] is 92%; in [5], over 95%. In series [6], the half-life was 16.2 min. This molecule came in with a clearance in series [7] of 4.46 L/h/kg. For the same molecule, in the series on Rattus norvegicus, the AUC came out at 1.13 µg·h/mL.
On to `CS(=O)(=O)c1cc(F)cc(C[C@H](NC(=O)c2c(Cl)cc3c(c2Cl)CCN(C(=O)c2ccc4ccoc4c2)C3)C(=O)O)c1`, for which the IC50 in series [1] is 0.01 µM; in series [2] it was 0.26 µM. Moreover, the remaining at 0.5 h in [4] and in series [5] was over 95% each time. The molecule further showed a half-life in [6] of 39 min. Besides, the clearance in [7] was 4.83 L/h/kg. The exposure (AUC) in the series with Rattus norvegicus came out at 1.19 µg·h/mL.
As to `CP(C)(=O)c1cccc(C[C@H](NC(=O)c2c(Cl)cc3c(c2Cl)CCN(C(=O)c2ccc4ccoc4c2)C3)C(=O)O)c1`, the values for the half-maximal inhibitory concentration (IC50) in [1] and in series [2] were 0.058 µM and 0.49 µM, respectively. The remaining at 0.5 h in series [4] and in series [5] was over 95% each time. The molecule further had a half-life in [6] of 22.2 min. In series [7], this molecule gave a clearance of 2.22 L/h/kg. The exposure (AUC) in the series with Rattus norvegicus was found to be 2.26 µg·h/mL.
Take `CS(=O)(=O)c1ccc(C[C@H](NC(=O)c2c(Cl)cc3c(c2Cl)CCN(C(=O)c2ccc(Cl)cc2)C3)C(=O)O)cc1`: the concentration for half-maximal inhibition (IC50) in series [1] was 0.25 µM.
On to `CS(=O)(=O)c1cccc(C[C@H](NC(=O)c2c(Cl)cc3c(c2Cl)CCN(C(=O)c2ccc4ccoc4c2)C3)C(=O)O)c1` [listing 2 of 2 here], for which the IC50 is 0.009 µM in series [1], 0.074 µM in [2], over 20 µM on Cytochrome P450 3A4 and 3 µM at Cytochrome P450 2C9. Besides, the remaining at 0.5 h in [4] was 71%; in series [5] it was over 95%. In addition, in series [6], the half-life is 46.8 min. This molecule also came in with a clearance in [7] of 8.35 L/h/kg. In addition, the AUC in the series on Rattus norvegicus amounted to 0.705 µg·h/mL. The Activity result in the series with Salmonella typhimurium is reported as “Non-toxic”; in the series with Canis familiaris it was 3.4 mm.
With `C[C@@H](O)c1cccc(C[C@H](NC(=O)c2c(Cl)cc3c(c2Cl)CCN(C(=O)c2ccc4ccoc4c2)C3)C(=O)O)c1`, the IC50 in series [1] was found to be 0.01 µM; in [2], 4 µM.
As to `CS(=O)(=O)c1cc(C[C@H](NC(=O)c2c(Cl)cc3c(c2Cl)CCN(C(=O)c2ccc4ccoc4c2)C3)C(=O)O)ccc1Cl`, the IC50 in series [1] turned out to be 0.12 µM; in series [2], 2 µM.
